From the supplement of paper PMC10307832

Assays:
Assay in all cases: relative viability (nuclei count vs DMSO), 5 days (fraction); higher = more cells survive
[1] = compound: CC1=CC(=CC=C1)NC2=NC(=CS2)C3=CC=NC=C3
In short: (§1)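 Following overnight incubation at 37 °C, lung cancer cell lines in 1536-well plates were pinned with five library-drug doses (not always all listed) in √10 steps on vehicle-anchored plates. The cells then spent 5 days without medium change before a combined fix, permeabilisation and Hoechst stain, 4× imaging and MetaXpress nuclear counts. Viability is the treated-to-vehicle ratio of nuclei, taken as the median across plates. Only plates with control CV below 25% and at least one doubling passed.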

Masitinib = compound: Cc1ccc(NC(=O)c2ccc(CN3CCN(C)CC3)cc2)cc1Nc1nc(-c2cccnc2)cs1 [Masitinib]
In short: as §1

[2] = compound: CC1=CC(=CC=C1)NC2=NC(=CS2)C3=CC=NC=C3 + CC1(C)CCC(c2ccc(Cl)cc2)=C(CN2CCN(c3ccc(C(=O)NS(=O)(=O)c4ccc(N[C@H](CCN5CCOCC5)CSc5ccccc5)c(S(=O)(=O)C(F)(F)F)c4)cc3)CC2)C1 [Navitoclax] (partner 0.5 µM)
In short: (§2)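 One day after seeding in 1536-well plates, lung cancer cell lines were dosed by pin tool. Dosing was either single-drug or a fixed anchor-drug dose plus five library-drug doses (not always all listed) in √10 steps. After 5 days, nuclei were stained in one fix-and-stain step and counted on 4× images, and relative viability is the nuclei count of treated wells over that of vehicle wells, given as the median of duplicate plates.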

Masitinib + Phenformin = compound: Cc1ccc(NC(=O)c2ccc(CN3CCN(C)CC3)cc2)cc1Nc1nc(-c2cccnc2)cs1 [Masitinib] + N=C(N)NC(=N)NCCc1ccccc1 [Phenformin] (partner 250 µM)
In short: as §2

Cell Line | relative viability ([1]; 0.08 µM) | relative viability ([1]; 0.253 µM) | relative viability ([1]; 0.8 µM) | relative viability ([1]; 2.53 µM) | relative viability ([1]; 8 µM) | relative viability (Masitinib; 0.01 µM) | relative viability (Masitinib; 0.03162 µM) | relative viability (Masitinib; 0.1 µM) | relative viability (Masitinib; 0.3162 µM) | relative viability (Masitinib; 1 µM) | relative viability ([2]; first compound 0.08 µM) | relative viability ([2]; first compound 0.253 µM) | relative viability ([2]; first compound 0.8 µM) | relative viability ([2]; first compound 2.53 µM) | relative viability ([2]; first compound 8 µM) | relative viability (Masitinib + Phenformin; first compound 0.01 µM) | relative viability (Masitinib + Phenformin; first compound 0.1 µM) | relative viability (Masitinib + Phenformin; first compound 0.3162 µM) | relative viability (Masitinib + Phenformin; first compound 1 µM) | relative viability (Masitinib + Phenformin; first compound 0.03162 µM)
BEN | 0.928 | 0.95 | 0.913 | 0.897 | 1.03 | 1.06 | 0.845 | 1.16 | 0.953 | 0.975 | 0.0747 | 0.0619 | 0.0712 | 0.0922 | 0.084 | 0.288 | 0.268 | 0.272 | 0.253 | 
EMC-BAC-2 | 0.834 | 0.712 | 1.01 | 0.838 | 0.885 | 0.78 | 0.784 | 0.893 | 0.937 | 0.927 | 1.06 | 1.22 | 1.1 | 1.15 | 0.963 | 0.485 | 0.524 | 0.53 | 0.457 | 0.494
LXF-289 | 0.942 | 0.987 | 0.974 | 0.974 | 0.915 | 0.806 | 0.973 | 0.941 | 1 | 1.01 | 0.944 | 0.921 | 0.939 | 0.908 | 0.822 | 0.461 | 0.477 | 0.522 | 0.451 | 0.514
NCI-H1355 | 0.769 | 0.73 | 0.768 | 0.694 | 0.65 | 0.813 | 0.723 | 0.851 | 0.762 | 0.966 | 0.783 | 0.69 | 0.591 | 0.555 | 0.577 | 0.462 | 0.478 | 0.379 | 0.406 | 0.384
NCI-H2405 | 0.851 | 0.918 | 0.85 | 0.915 | 0.901 | 0.859 | 0.953 | 0.907 | 0.973 | 0.932 | 0.732 | 0.802 | 0.655 | 0.883 | 0.673 | 0.379 | 0.399 | 0.459 | 0.247 | 0.366
NCI-H2009 | 0.877 | 0.944 | 0.98 | 0.945 | 0.893 | 0.806 | 0.991 | 0.922 | 0.994 | 0.981 | 1.05 | 1.12 | 1.11 | 1.18 | 1.02 | 0.434 | 0.463 | 0.427 | 0.381 | 0.48
NCI-H441 | 0.957 | 1 | 1.01 | 0.922 | 0.866 | 1.01 | 0.956 | 1.09 | 1.25 | 1.07 | 0.327 | 0.42 | 0.673 | 0.64 | 0.777 | 0.654 | 0.837 | 0.94 | 0.843 | 1.05
PC-14 | 0.94 | 0.899 | 0.943 | 0.917 | 0.766 | 0.916 | 0.943 | 1.01 | 1.01 | 1.01 | 0.922 | 1.01 | 0.892 | 0.933 | 0.439 | 0.458 | 0.572 | 0.507 | 0.506 | 0.633
HARA | 0.741 | 0.975 | 0.815 | 0.685 | 0.735 | 0.844 | 0.874 | 0.772 | 0.742 | 0.909 | 1.11 | 1.16 | 1.12 | 1.12 | 1.08 |  | 0.399 | 0.398 | 0.424 | 0.417
NCI-H2126 | 0.881 | 0.864 | 0.893 | 0.824 | 0.863 | 0.908 | 0.996 | 0.978 | 0.847 | 0.931 | 0.828 | 0.912 | 0.849 | 0.909 | 0.778 | 0.515 | 0.552 | 0.507 | 0.503 | 0.548
NCI-H1915 | 0.937 | 0.961 | 0.962 | 0.938 | 0.89 |  | 0.999 |  | 1 | 0.977 | 0.747 | 0.791 | 0.84 | 0.779 | 0.811 |  |  | 0.401 | 0.349 | 0.367
ChaGo-K-1 | 0.997 | 1.01 | 0.973 | 1.03 | 0.814 | 1.17 | 0.988 | 1.12 | 1.1 | 0.984 | 0.9 | 0.806 | 1.06 | 0.411 | 0.849 | 0.509 | 0.511 | 0.467 | 0.411 | 0.455
COR-L23 | 0.981 | 0.986 | 0.926 | 0.877 | 0.989 | 1.02 | 0.969 | 1.06 | 0.984 | 0.981 | 0.982 | 0.804 | 0.722 | 0.965 | 0.973 | 0.415 | 0.507 | 0.428 | 0.417 | 0.434
COR-L 105 | 0.742 | 0.901 | 0.818 | 0.776 | 0.667 | 0.944 | 0.894 | 0.976 | 0.856 | 0.897 | 0.573 | 0.779 | 0.634 | 0.809 | 0.456 | 0.505 | 0.604 | 0.515 | 0.425 | 0.542
LK-2 | 0.816 | 0.98 | 1.27 | 0.793 | 1.41 | 1.09 | 0.89 | 1.23 | 1.19 | 1.08 | 0.917 | 0.958 | 0.901 |  | 1.46 | 0.481 | 0.423 | 0.535 | 0.43 | 0.347
201T | 0.939 | 0.959 | 0.959 | 0.74 | 0.712 | 0.79 | 1.03 | 0.825 | 0.783 | 0.976 | 1.2 | 1.22 | 1.21 | 1.26 | 0.993 | 0.362 | 0.373 | 0.471 | 0.44 | 0.409
